In US12617744B2, “Production method for reduced coenzyme Q10 form-II type crystal or crystalline solid thereof” (KANEKA CORPORATION, priority 2021, dated 2026):

How the values were obtained:
[1] = Median diameter measurement with particle size distribution analyzer; assay type: physicochemical; settings: reduced coenzyme Q10 crystal obtained; Partica LA-960
Protocol: The median diameters of reduced coenzyme Q10 crystals obtained in Examples and Comparative Example were measured using the device described below. • Particle size distribution analyzer: Partica LA-960 <Percentage of Form II Crystal in Reduced Coenzyme Q10 Crystal>

[2] = Evaluation of slurry filterability by constant pressure filtration (average specific filtration resistance); assay type: physicochemical; settings: slurry cooled to 1° C., filtrate volume 200 mL, filtration pressure 0.1 hPa
Protocol: The slurries obtained in Examples and Comparative Example were subjected to constant pressure filtration with a filtrate volume of 200 mL and a filtration pressure of 0.1 hPa and the filtration rate was measured. The average specific filtration resistance (αav) was calculated and used for the evaluation of filterability.

[3] = Saturation concentration of crystal forms in alcohol; assay type: physicochemical; settings: Form II crystal compared with Form I crystal
Text: The alcohol is preferably a monohydric alcohol having 1 to 5 carbon atoms. Examples of a monohydric alcohol having 1 to 5 carbon atoms include methanol, ethanol, n-propanol, isopropanol, n-butanol, isobutanol, and n-pentanol. As the alcohol, ethanol is particularly preferable because the saturation concentration of Form II crystal is sufficiently lower than the saturation concentration of Form I crystal and is easy to handle. As the alcohol, those exemplified above may be used alone, or two or more thereof may be mixed and used.

[4] = compared with conventional reduced coenzyme Q10 Form I crystal; cited from earlier work
[5] = compared with oxidized coenzyme Q10; cited from earlier work

| SMILES | Median diameter [1] [μm] | average specific filtration resistance (αav) [2] | saturation concentration in an alcohol [3] | stability of crystal form [4] | oral absorbability [5] |
| --- | --- | --- | --- | --- | --- |
| COc1c(O)c(C)c(C/C=C(\C)CC/C=C(\C)CC/C=C(\C)CC/C=C(\C)CC/C=C(\C)CC/C=C(\C)CC/C=C(\C)CC/C=C(\C)CC/C=C(\C)CCC=C(C)C)c(O)c1OC [Comparative Example 1, reduced coenzyme Q10] | 68.2 | 3.4×10^10 m/kg | – | – | – |
| COc1c(O)c(C)c(C/C=C(\C)CC/C=C(\C)CC/C=C(\C)CC/C=C(\C)CC/C=C(\C)CC/C=C(\C)CC/C=C(\C)CC/C=C(\C)CC/C=C(\C)CCC=C(C)C)c(O)c1OC [Example 1, reduced coenzyme Q10] | 115.3 | 0.47×10^10 m/kg | – | – | – |
| COc1c(O)c(C)c(C/C=C(\C)CC/C=C(\C)CC/C=C(\C)CC/C=C(\C)CC/C=C(\C)CC/C=C(\C)CC/C=C(\C)CC/C=C(\C)CC/C=C(\C)CCC=C(C)C)c(O)c1OC [Example 2, reduced coenzyme Q10] | 87.6 | 0.98×10^10 m/kg | – | – | – |
| COc1c(O)c(C)c(C/C=C(\C)CC/C=C(\C)CC/C=C(\C)CC/C=C(\C)CC/C=C(\C)CC/C=C(\C)CC/C=C(\C)CC/C=C(\C)CC/C=C(\C)CCC=C(C)C)c(O)c1OC [Example 3, reduced coenzyme Q10] | 107.3 | 0.48×10^10 m/kg | – | – | – |
| COc1c(O)c(C)c(C/C=C(\C)CC/C=C(\C)CC/C=C(\C)CC/C=C(\C)CC/C=C(\C)CC/C=C(\C)CC/C=C(\C)CC/C=C(\C)CC/C=C(\C)CCC=C(C)C)c(O)c1OC [reduced coenzyme Q10 Form II crystal, reduced coenzyme Q10] | – | – | lower than the saturation concentration of a Form I crystal | much more stable than the conventional reduced coenzyme Q10 | – |
| COc1c(O)c(C)c(C/C=C(\C)CC/C=C(\C)CC/C=C(\C)CC/C=C(\C)CC/C=C(\C)CC/C=C(\C)CC/C=C(\C)CC/C=C(\C)CC/C=C(\C)CCC=C(C)C)c(O)c1OC [reduced coenzyme Q10] | – | – | – | – | higher oral absorbability than that of oxidized coenzyme Q10 |
